# Reference: US20260216182A1, “PYRIDAZINE NLRP3 INHIBITOR COMPOUND, PHARMACEUTICAL COMPOSITION, AND PREPARATION METHOD THEREFOR AND USE THEREOF” (CHANGCHUN GENESCIENCE PHARMACEUTICAL CO., LTD., priority 2022, published 2026)
# Read-outs that look alike come from different tables or passages of the source.
# Key:
# NLRP3 = biological target: T1, NLRP3 (Homo sapiens, UniProt Q96P20); test: IC50 of NLRP3 inhibitors in reducing IL-1β secretion by THP-1 cells (PMA, LPS, nigericin; ELISA); type: cell-based; details: compound + nigericin 1 h
# T1 construct: endogenous in cells; host or cells: THP-1 (human monocyte, PMA-differentiated, LPS-primed, nigericin-stimulated)
# Method: Test Example 1 Experiment on Detection of IC50 of NLRP3 Inhibitors in Reducing the Level of IL-1β Secretion by THP-1 Cells
# In this experiment, we use the human monocyte THP-1 to study the inhibitory activity of NLRP3 inhibitor on the secretion of IL-Iβ by cells. Human THP-1 cells are treated with crotonol-12-tetradecanoate-13-acetate (PMA) to differentiate into mature macrophage models. Then, according to the two stages of inflammasome formation in cells (assembly and activation), the cells are stimulated with lipopolysaccharide (LPS) and nigericin in turn, ultimately promoting the extracellular release of IL-1β by THP-1 cells. The first stage of inflammasome formation involves stimulating cells with LPS (lipopolysaccharide), an agonist of the Toll-like receptor TLR4, to activate the expression of the inflammasome-associated proteins NLRP3, caspase 1, and pro-IL-1β, a precursor of IL-1β. The second stage of inflammasome formation involves the addition of the potassium ion carrier nigericin, which causes a series of membrane potential changes in THP-1 cells, destroys the cell membrane structure, causes the efflux of cellular potassium ions, further stimulates the oligomerization of NLRP3 monomers to form NLRP3 oligomers, and begins to recruit ASC and pro-caspase-1 to assemble the NLRP3 inflammasome complex containing a large amount of pro-caspase-1. The pro-caspase-1 on the activated NLRP3 inflammasome is enzymatically self-activated to form a large amount of active caspase-1. The activated caspase-1 further enzymatically promotes the conversion of pro-IL-1β into mature IL-1β that can be secreted.
# (1) Cell suspensions were collected. The cells were centrifuged at 1000 rpm for 4 min, the supernatant was discarded, the cells were resuspended with 1 mL of test medium, and then the cell culture medium was gently pipetted up and down with a pipette and its tip to break up the cell aggregates. After counting the cells, the THP-1 cells were resuspended with complete RPMI medium 1640 containing PMA and seeded into 96-well plates and cultured in a 37° C., 5% CO2 incubator for 72 h.
# (2) The culture medium was taken out from each well with an automatic plate washer dispenser EL406 and each well was rinsed twice with PBS. To each well, 96 μL of RPMI 1640 medium containing LPS was added. The cells were cultured in a 37° C., 5% CO2 incubator for 4 h.
# (3) To each well, 2 μL of the compound and 2 μL of nigericin sodium salt were added, and the final compound concentration selected was 5000 nM, 1000 nM, 200 nM, 40 nM, 8 nM, 1.6 nM, 0.32 nM, 0 nM, respectively. The cells were cultured in a 37° C., 5% CO2 incubator for 1 h.
# (4) An appropriate amount of supernatant was taken out, diluted 100 times, and the content of IL-1β in the supernatant was detected using Human IL-1 beta Valukine ELISA kit.
# IL-1β = test: Mouse acute peritonitis model (LPS/ATP), IL-1β in peritoneal lavage fluid and blood; type: in vivo, C57BL/6 mice; details: Mus musculus, 10 mg/kg oral, vs vehicle group
# Method: Test Example 2: Mouse Acute Peritonitis Model Evaluation Experiment
# Male C57BL/6 mice were orally administered with a 10 mg/kg dose of the test compound or control vehicle, and then injected intraperitoneally with 1 μg of E. coli 055: B5 ultrapure lipopolysaccharide (LPS) suspension 1 h later, followed by an intraperitoneal injection of 0.5 ml of 30 mM disodium salt ATP suspension (in PBS, the pH of the ATP solution was adjusted to 7.2 before injection) 2 h later. After 30 min, all animals would be euthanized by carbon dioxide, and blood and peritoneal lavage fluid would be collected. The peritoneal lavage fluid was kept at 4° C.
# Preparation of peritoneal lavage fluid: The peritoneal cavity would be lavaged with ice-cold PBS (3 mL) containing 25 U/mL heparin and 10% heat-inactivated FBS. Prior to use, one tablet of the protease inhibitor mixture was added per 50 mL of buffer. The collected lavage fluid would be centrifuged (centrifugation conditions: 1000g, 4° C., 10 min) to remove cells and cell debris, and the clarified samples would be stored at −80° C. for measurement of cytokine IL-1β.
# The mouse IL-1β/IL-1F2 DuoSet ELISA kit (R&D Systems) was used to measure the changes in IL-1β cytokine levels in peritoneal lavage fluid and serum. By comparing with the Vehical group, the inhibition rate of the compound on IL-1β was calculated.
# mouse NASH model = test: Mouse NASH model test (HFD + fructose), combination with semaglutide; type: in vivo, mice; details: low/high dose semaglutide alone
# Method: Test Example 6 Mouse NASH Model Test
# After the animals arrived and acclimatized for 1 week, they were randomly divided into 2 groups. 48 mice were fed a high-fat diet (HFD) and had free access to 15% fructose water (w/w). After the animals were fed for 20 weeks, they were fasted for 6 h, and fasting blood glucose (FBG) was monitored by a blood glucose meter. Orbital blood was taken from all animals, and serum was collected by centrifugation to detect serum ALT levels. Animals were randomly divided into 6 groups according to their body weight, FBG and ALT levels. After that, the high fat feed (HFD) was replaced with the modified high fat feed (mHFD), and the mice had free access to 15% fructose water (v/w). The 8 mice in the other group were fed normal diet and water.
# The first end point of the experiment: After 8 weeks of administration, the end point body weight was recorded and the animals were fasted for 6 h, and fasting blood glucose was measured with a blood glucose meter. The mice were then euthanized by CO2 and serum was collected by orbital blood sampling and stored at −80° C. for insulin and biochemical analysis. The animal's liver was taken and the liver weight was recorded. The liver was divided into four parts, one part was quick-frozen in liquid nitrogen for biochemical analysis, one part was placed in tissue fixative for pathological analysis, one part was stored in RNAlater for qPCR detection (backup for later use), and one part was quick-frozen in liquid nitrogen for possible subsequent detection.
# The second end point of the experiment: 3 mice were kept in each group for 6 weeks for further observation. The end point body weight was recorded and the mice were fasted for 6 h. Fasting blood glucose was tested with a blood glucose meter. The mice were then euthanized by CO2 and serum was collected by orbital blood sampling and stored at −80° C. for insulin and biochemical analysis. The animal's liver was taken and the liver weight was recorded. The liver was divided into four parts, one part was quick-frozen in liquid nitrogen for biochemical analysis, one part was placed in tissue fixative for pathological analysis, one part was stored in RNAlater for qPCR detection (backup for later use), and one part was quick-frozen in liquid nitrogen for subsequent detection.
# [1] = read-out: IL-1β Peritoneal lavage fluid (inhibition rate)
# [2] = read-out: IL-1β Plasma (inhibition rate)
# T1 sequence (Q96P20 whole entry): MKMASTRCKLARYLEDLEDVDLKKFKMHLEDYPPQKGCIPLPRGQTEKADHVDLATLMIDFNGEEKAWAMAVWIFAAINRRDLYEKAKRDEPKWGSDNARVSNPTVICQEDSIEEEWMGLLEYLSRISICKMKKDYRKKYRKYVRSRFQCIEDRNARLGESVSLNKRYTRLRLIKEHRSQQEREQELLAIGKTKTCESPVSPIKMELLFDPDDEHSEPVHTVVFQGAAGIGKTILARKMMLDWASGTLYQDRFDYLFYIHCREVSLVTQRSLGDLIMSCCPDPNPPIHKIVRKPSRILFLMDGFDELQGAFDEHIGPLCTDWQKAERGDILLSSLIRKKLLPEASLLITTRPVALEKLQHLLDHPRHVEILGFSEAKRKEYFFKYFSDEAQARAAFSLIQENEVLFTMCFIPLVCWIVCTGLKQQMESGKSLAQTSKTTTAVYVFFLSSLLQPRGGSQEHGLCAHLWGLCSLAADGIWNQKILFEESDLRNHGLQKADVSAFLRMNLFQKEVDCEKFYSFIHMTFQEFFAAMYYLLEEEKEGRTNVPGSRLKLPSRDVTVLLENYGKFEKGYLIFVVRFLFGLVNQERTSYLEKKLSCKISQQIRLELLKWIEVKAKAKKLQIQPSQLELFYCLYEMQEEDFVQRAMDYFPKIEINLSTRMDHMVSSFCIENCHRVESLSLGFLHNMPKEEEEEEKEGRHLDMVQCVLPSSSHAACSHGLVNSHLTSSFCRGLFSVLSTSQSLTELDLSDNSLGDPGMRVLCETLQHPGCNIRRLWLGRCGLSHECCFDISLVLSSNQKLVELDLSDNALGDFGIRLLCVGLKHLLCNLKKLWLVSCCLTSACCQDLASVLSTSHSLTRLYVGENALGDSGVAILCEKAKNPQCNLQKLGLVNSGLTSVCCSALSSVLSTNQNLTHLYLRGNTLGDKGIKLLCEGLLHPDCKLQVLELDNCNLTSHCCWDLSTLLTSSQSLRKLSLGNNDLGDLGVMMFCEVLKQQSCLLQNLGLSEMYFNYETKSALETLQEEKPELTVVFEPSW
Compound,IC50 (NLRP3),inhibition at 10 mg/kg (IL-1β; [1]),inhibition at 10 mg/kg (IL-1β; [2]),rebound of body weight after drug withdrawal (mouse NASH model)
CC(=O)c1ccc2c(-c3ccc(C(F)(F)F)cc3O)nnc(NC[C@H](O)CO)c2c1 [Compound 082],32 nM,0%,12%,
semaglutide [reference compound],,,,neither the control compound combined with semaglutide nor the groups of low/high dose semaglutide alone inhibited the rebound of body weight
CC(=O)c1ccc2c(-c3ccc(C(F)(F)F)cc3O)nnc(N[C@@H]3CCCC[C@H]3O)c2c1 [Compound 081],5.3 nM,45%,61%,
"CC#Cc1ccc2c(-c3ccc(Cl)cc3O)nnc(N[C@@H]3CCCN(CCO)C3=O)c2c1 [Compound 075, (R)-3-((4-(4-chloro-2-hydroxyphenyl)-7-(prop-1-yn-1-yl)phthalazin-1-yl)amino)-1-(2-hydroxyethyl) piperidin-2-one]",7 nM,,,
CC#Cc1ccc2c(-c3ccc(C(F)(F)F)cc3O)nnc(N[C@@H]3CCC[C@H](O)C3)c2c1 [Compound 070],42 nM,,,
"NC(=O)CN1CCC[C@@H](Nc2nnc(-c3ccc(Cl)cc3O)c3ccncc23)C1 [Compound 009, (R)-2-(3-((1-(4-chloro-2-hydroxyphenyl)pyrido[3,4-d]pyridazin-4-yl)amino)piperidin-1-yl)acetamide]",28 nM,,,
"N#Cc1ccc2c(-c3ccc(Cl)cc3O)nnc(N[C@@H]3CCCN(C(=O)C4CC4)C3)c2c1 [Compound 005, (R)-1-(4-chloro-2-hydroxyphenyl)-4-((1-(cyclopropanecarbonyl)piperidin-3-yl)amino) phthalazin-6-carbonitrile]",37 nM,,,
"Oc1cc(Cl)ccc1-c1nnc(N[C@@H]2CCCC(=C(F)F)C2)c2cnccc12 [Compound 080, (R)-5-chloro-2-(4-((3-(difluoromethylene)cyclohexyl)amino)pyridin[3,4-d]pyridazin-1-yl)phenol]",36 nM,,,
"CC(C(=O)NC1CC1)N1CCC[C@@H](Nc2nnc(-c3ccc(Cl)cc3O)c3ccncc23)C1 (mixture of isomers) [Compound 041, 2-((R)-3-((1-(4-chloro-2-hydroxyphenyl)pyrido[3,4-d]pyridazin-4-yl)amino)piperidin-1-yl)-N-cyclopropylpropionamide]",14 nM,,,

# Further lines, with some results ahead:
IC50 (NLRP3),Compound,inhibition at 10 mg/kg (IL-1β; [1]),inhibition at 10 mg/kg (IL-1β; [2]),rebound of body weight after drug withdrawal (mouse NASH model)
15 nM,"CC#Cc1ccc2c(-c3c(O)cc(Cl)cc3F)nnc(NC[C@H](O)CO)c2c1 [Compound 063, (2S)-3-((4-(4-chloro-2-fluoro-6-hydroxyphenyl)-7-(prop-1-yn-1-yl)phthalazin-1-yl)amino) propan-1,2-diol]",79%,74%,
41 nM,"OC[C@@H](O)CNc1nnc(-c2ccc(Cl)cc2O)c2ccc(C#CC3CC3)cc12 [Compound 079, (S)-3-((4-(4-chloro-2-hydroxyphenyl)-7-(cyclopropylethynyl)phthalazin-1-yl)amino) propan-1,2-diol]",51%,21%,
18 nM,"CC#Cc1ccc2c(-c3c(O)cc(C(F)(F)F)cc3F)nnc(NC[C@H](O)CO)c2c1 [Compound 064, (2S)-3-((4-(2-fluoro-6-hydroxy-4-(trifluoromethyl)phenyl)-7-(prop-1-yn-1-yl)phthalazin-1-yl)amino) propan-1,2-diol]",81%,90%,
35 nM,"Cc1cc(Cl)cc(O)c1-c1nnc(NCC(C)(C)O)c2cc(-n3cccn3)ccc12 [Compound 026, 5-chloro-2-(4-((2-hydroxy-2-methylpropyl)amino)-6-(1H-pyrazol-1-yl)phthalazin-1-yl)-3-methylphenol]",,,
14 nM,CC#Cc1ccc2c(-c3c(C)cc(Cl)cc3O)nnc(NC[C@@H](C)O)c2c1 (mixture of isomers) [Compound 035],,,
19 nM,"CC#Cc1ccc2c(-c3c(C)cc(Cl)cc3O)nnc(NCC(C)(C)O)c2c1 [Compound 024, 5-chloro-2-(4-((2-hydroxy-2-methylpropyl)amino)-6-(1-propyn-1-yl)phthalazin-1-yl)-3-methylphenol]",,,
158 nM,"Cc1cc(Cl)cc(O)c1-c1nnc(NCC(C)(C)O)c2cc(-n3ccnn3)ccc12 [Compound 058, 5-chloro-2-(4-((2-hydroxy-2-methylpropyl)amino)-6-(1H-1,2,3-triazol-1-yl)phthalazin-1-yl)-3-methylphenol]",,,
